According to patent publication US12383545B1, “Treatment of migraine” (priority 2018, dated 2025):

Test system: participants with episodic migraine
Assay: Study B: adverse events (atogepant 60 mg QD vs oral standard of care)
Assay type: in vivo, human
Procedure: Study B: A phase 3, multicenter, randomized, open label study was conducted to evaluate the long-term safety and tolerability of oral atogepant for the prevention of migraine in participants with episodic migraine (Study B). The study objective was to evaluate the safety and tolerability of daily treatment with atogepant 60 mg QD when administered over 52 weeks for the prevention of migraine in participants with episodic migraine.
A total of 744 participants from 106 sites were randomized in a ratio of 5:2 to the following treatment groups: atogepant 60 mg QD or oral standard of care (SOC) migraine prevention medication. The latter arm was included to contextualize safety data from the atogepant-treated participants, and efficacy measures were collected from the atogepant arm only. Efficacy measures were evaluated using the modified intent-to-treat (mITT) population and a mixed-effects model for repeated measures and included changes from baseline in monthly migraine days (MDDs), moderate/severe headache days, and acute medication use days, as well as the proportion of responders based on reductions in MMDs.
Regardless of which of these options was chosen, the participant was allowed to continue in the study. […]

**Q.** With C[C@@H]1[C@H](c2c(F)ccc(F)c2F)C[C@H](NC(=O)c2cnc3c(c2)C[C@@]2(C3)C(=O)Nc3ncccc32)C(=O)N1CC(F)(F)F [atogepant] as the molecule, how does the “Death, n (%)” value (52-week open-label, atogepant 60 mg QD or standard of care, safety population) read?
**A.** (0.4) %

**Q.** And the “deaths reported (considered not related to atogepant)” value (atogepant 60 mg QD)?
**A.** Two
